# Test results published in patent US20100144854A1 (priority 2007, published 2010).
# Tests used:
# [1] = tested on: adenocarcinoma of the right ovary; experiment: Example 3: patient with ovarian adenocarcinoma treated with rhodamine 6G; type: in vivo, human; conditions: Patient T, 54
# Excerpt: Patient T. Diagnosis: adenocarcinoma of the right ovary. Metastases in the liver. A hysterectomy had been carried out 4 years before. There was a recurrence of the cancer after a year. The patient complained of pain in the pelvis and difficulty in urination. […] The patient's condition was moderately severe; pale skin. […] The course of treatment lasted 3 months. During the treatment the tumor decreased in size to 1.2×0.9×0.3 cm. […] Blood analyses against the treatment background became normal over 2 months. A full course of treatment with the preparation was carried out over 6 months. During the course of the treatment the tumor in the region of the bladder and rectum disappeared.
# [2] = tested on: Malignant glioblastoma of the left brain; experiment: Example 4: patient with recurrent brain glioblastoma treated with rhodamine 6G intravenously; type: in vivo, human
# Protocol: Patient G. Diagnosis: Malignant glioblastoma of the left brain. Recurrence of cancer. Two years previously a tumor had been removed in connection with a brain glioblastoma. The patient complained of headaches, nausea and vomiting. […] Patient's condition moderately severe; pale skin. […] The procedure took 40 minutes. Subsequent procedures were carried out in exactly the same sequence twice a week. The course of treatment lasted 3 months. During the treatment the tumor reduced in size to 0.3×0.4 cm. After two infusions of the preparation the symptoms of nausea and pain had decreased. The preparation was administered over 6 months as a single dose once every 2 weeks.
# [3] = tested on: adenocarcinoma of the large intestine; experiment: Example 6: patient with large intestine adenocarcinoma and liver metastases treated with rhodamine 6G; type: in vivo, human; set-up: Nuclear segments / Lymphocytes (line r11) / Erythrocytes / Hemoglobin / Thrombocytes / Leukocytes / Amylase / Chlorine / Serum iron / Cholesterol / Total bilirubin / Bilirubin (line r8, above 'direct'): unit not given here; conditions: for Erythrocytes / Hemoglobin / Leukocytes / Thrombocytes / Eosinophils / Cholesterol / Monocytes / Total bilirubin / Potassium / ALT / AST / Bilirubin (line r8, above 'direct') / Serum iron / Lymphocytes (line r11) / Nuclear segments / Total protein / Creatinine / Amylase / Chlorine / Indirect bilirubin fraction / direct (line r9) / indirect (line r11) / Basophils / Nuclear rods: Example 6, Patient N; for Eosinophils: normal 0-5; for Cholesterol: normal 1.66-8.3; for Monocytes: normal 2-9%; for Total bilirubin: normal 2.90-6.54; for Potassium: normal 3.5-6.0; for ALT / AST: normal 5-40; for Bilirubin (line r8, above 'direct'): normal 8.5-20.5; for Serum iron: normal 8.8-27.0; for Lymphocytes (line r11): normal 18-; for Nuclear segments: normal 45-70; for Total protein: normal 65.0-80; for Creatinine: normal 85.0; for Amylase: normal 95-110.0; for Chlorine: normal 135.0-; for Indirect bilirubin fraction / direct (line r9): normal to 25%; for indirect (line r11): normal to 100; for Basophils: normal 0-1%; for Nuclear rods: normal 1-6%
# Protocol: Patient N. Diagnosis: adenocarcinoma of the large intestine. Metastases in the liver. Ascites. Three years previously a resection of the large intestine was performed with insertion of an anastomosis end to end. A full course of polychemo-therapy was given. Two years after the treatment the patient complained of pain in the bottom of the abdomen and tenesmus. The patient presented complaining of acute weakness, constant pain in the abdomen, coughing, dyspnea, ascites, retention of stools. Patient's condition serious, loss of appetite, pale cyanosed skin, abdomen with signs of ascites. […] A lump of irregular shape 2×4 cm in size with irregular edges was detected by computerized tomography in the right renal lobe. A large lump 4×5.4 cm in size and free liquid in the peritoneal cavity were also detected. […] The infusions were administered weekly over the course of 3 months. […] The enemas were administered three times a week over the course of 2 months. […] In the third week of treatment the dyspnea was less severe. In the course of treatment the tumor in the region of the anastomosis decreased in size to 0.2×0.3 cm. After 3 months the treatment was discontinued for 1 month, and was then resumed for a further 2 months.
# [4] = Tolerability on use in a wide range of dosages; type: in vivo; conditions: used in a wide range of dosages
# [5] = Patient N, over the course of the treatment (3 months, 1 month pause, 2 months)
substance,measurement,setting,value
"9-(2-ethoxycarbonyl)phenyl)-3,6-bis(ethylamino)2,7-dimethylxanthyl chloride [rhodamine 6G]",body weight,[1]; after treatment,regained weight
same,tumor in the region of the bladder and rectum,[1]; full course over 6 months,disappeared
same,blood analyses against the treatment background,[1]; over 2 months,became normal
same,stools and feeling of pain,[1]; second week after start,the stools became normal and the feeling of pain disappeared
same,tumor on CT scan,[2]; after 9 months' treatment,no tumor could be detected
same,symptoms of nausea and pain,[2]; after two infusions,decreased
same,Erythrocytes,[3]; 09 Dec. 2004,4.44
same,Hemoglobin,[3]; 09 Dec. 2004,115
same,Leukocytes,[3]; 09 Dec. 2004,5.2
same,Thrombocytes,[3]; 09 Dec. 2004,326
same,Eosinophils,[3]; 09 Dec. 2004,2
same,Cholesterol,[3]; 09 Dec. 2004,5.75
same,Monocytes,[3]; 09 Dec. 2004,10%
same,Total bilirubin,[3]; 09 Dec. 2004,8.4
same,Potassium,[3]; 09 Dec. 2004,2.28
same,ALT,[3]; 09 Dec. 2004,69.2 el
same,AST,[3]; 09 Dec. 2004,45.7 el
same,"Bilirubin (line r8, above 'direct')",[3]; 09 Dec. 2004,3.3
same,Serum iron,[3]; 09 Dec. 2004,54.8
same,Lymphocytes (line r11),[3]; 09 Dec. 2004,58
same,Nuclear segments,[3]; 09 Dec. 2004,6
same,Total protein,[3]; 09 Dec. 2004,65 g/L
same,Creatinine,[3]; 09 Dec. 2004,74 µM
same,Amylase,[3]; 09 Dec. 2004,102.8
same,Chlorine,[3]; 09 Dec. 2004,114.31
same,Indirect bilirubin fraction,[3]; 09 Dec. 2004,84%
same,direct (line r9),[3]; 09 Dec. 2004,5.1%
same,indirect (line r11),[3]; 09 Dec. 2004,89 el
same,Erythrocytes,[3]; 09 Jan. 2005,4.87
same,Hemoglobin,[3]; 09 Jan. 2005,128
same,Leukocytes,[3]; 09 Jan. 2005,5.3
same,Thrombocytes,[3]; 09 Jan. 2005,440
same,Basophils,[3]; 09 Jan. 2005,1%
same,Eosinophils,[3]; 09 Jan. 2005,1
same,Nuclear rods,[3]; 09 Jan. 2005,2%
same,Cholesterol,[3]; 09 Jan. 2005,7.03
same,Monocytes,[3]; 09 Jan. 2005,12%
same,Total bilirubin,[3]; 09 Jan. 2005,8.0
same,Potassium,[3]; 09 Jan. 2005,2.15
same,ALT,[3]; 09 Jan. 2005,79 el
same,AST,[3]; 09 Jan. 2005,29.5 el
same,"Bilirubin (line r8, above 'direct')",[3]; 09 Jan. 2005,2.0
same,Serum iron,[3]; 09 Jan. 2005,42.9
same,Lymphocytes (line r11),[3]; 09 Jan. 2005,69
same,Nuclear segments,[3]; 09 Jan. 2005,5
same,Total protein,[3]; 09 Jan. 2005,82.53 g/L
same,Creatinine,[3]; 09 Jan. 2005,69 µM
same,Amylase,[3]; 09 Jan. 2005,110.0
same,Chlorine,[3]; 09 Jan. 2005,134.2
same,Indirect bilirubin fraction,[3]; 09 Jan. 2005,90%
same,direct (line r9),[3]; 09 Jan. 2005,6.0%
same,indirect (line r11),[3]; 09 Jan. 2005,78.0 el
same,Erythrocytes,[3]; 9 Oct. 2004,3.20
same,Hemoglobin,[3]; 9 Oct. 2004,74
same,Leukocytes,[3]; 9 Oct. 2004,9.2
same,Thrombocytes,[3]; 9 Oct. 2004,120
same,Basophils,[3]; 9 Oct. 2004,1%
same,Eosinophils,[3]; 9 Oct. 2004,1
same,Nuclear rods,[3]; 9 Oct. 2004,0%
same,Cholesterol,[3]; 09 Oct. 2004,6.21
same,Monocytes,[3]; 9 Oct. 2004,36%
same,Total bilirubin,[3]; 09 Oct. 2004,11.0
same,Potassium,[3]; 09 Oct. 2004,2.72
same,ALT,[3]; 09 Oct. 2004,465.8 el
same,AST,[3]; 09 Oct. 2004,265.7 el
same,"Bilirubin (line r8, above 'direct')",[3]; 09 Oct. 2004,3.0
same,Serum iron,[3]; 09 Oct. 2004,190.4
same,Lymphocytes (line r11),[3]; 9 Oct. 2004,35
same,Nuclear segments,[3]; 9 Oct. 2004,2
same,Total protein,[3]; 09 Oct. 2004,51.23 g/L
same,Creatinine,[3]; 09 Oct. 2004,118 µM
same,Amylase,[3]; 09 Oct. 2004,114.0
same,Chlorine,[3]; 09 Oct. 2004,114.20
same,Indirect bilirubin fraction,[3]; 09 Oct. 2004,82%
same,direct (line r9),[3]; 09 Oct. 2004,8.0%
same,indirect (line r11),[3]; 09 Oct. 2004,107.2 el
same,Cholesterol,[3]; 24. Nov. 2004,5.62
same,Total bilirubin,[3]; 24. Nov. 2004,24.2
same,Potassium,[3]; 24. Nov. 2004,2.32
same,ALT,[3]; 24. Nov. 2004,326 el
same,AST,[3]; 24. Nov. 2004,125.8 el
same,"Bilirubin (line r8, above 'direct')",[3]; 24. Nov. 2004,22.3
same,Serum iron,[3]; 24. Nov. 2004,104.7
same,Total protein,[3]; 24. Nov. 2004,62.26 g/L
same,Creatinine,[3]; 24. Nov. 2004,89 µM
same,Amylase,[3]; 24. Nov. 2004,140
same,Chlorine,[3]; 24. Nov. 2004,115.3
same,Indirect bilirubin fraction,[3]; 24. Nov. 2004,96%
same,direct (line r9),[3]; 24. Nov. 2004,11.9%
same,indirect (line r11),[3]; 24. Nov. 2004,102 el
same,Erythrocytes,[3]; 24 Nov. 2004,3.84
same,Hemoglobin,[3]; 24 Nov. 2004,90
same,Leukocytes,[3]; 24 Nov. 2004,12.0
same,Thrombocytes,[3]; 24 Nov. 2004,210
same,Eosinophils,[3]; 24 Nov. 2004,2
same,Nuclear rods,[3]; 24 Nov. 2004,1%
same,Monocytes,[3]; 24 Nov. 2004,12%
same,Lymphocytes (line r11),[3]; 24 Nov. 2004,49
same,Nuclear segments,[3]; 24 Nov. 2004,6
same,feeling of pain,"[3]; Patient N, 55, ten days after start, i.v. infusions, enemas, oral solution",completely disappeared
same,body weight,"[3]; Patient N, after treatment",Weight regained
same,blood indices,"[3]; Patient N, during treatment",marked step-wise improvement
same,symptoms complained of,"[3]; Patient N, in 2 years",no symptoms
same,metastases in the liver,[3]; [5],no metastases were detected
same,tumor in the region of the anastomosis,[3]; [5],no tumor was detected
same,dyspnea,"[3]; Patient N, third week of treatment",less severe
same,allergic reactions or other side effects,[4],does not produce any allergic reactions or other side effects
